Experimental data: patent US20260262643A1, “HERBICIDAL BENZOXAZINES” (FMC CORPORATION, priority 2022, published 2026)

Columns and labels:
horseweed = test: Test A postemergence; assay type: in vivo, Erigeron canadensis; conditions: Erigeron canadensis, post-emergence, 240 h, postemergence, 10 days, 0 to 100 scale (0 no effect, 100 complete control); for pest or weed control at 125 g/ha: 125 g ai/ha, read-out: Horseweed plant response rating; for pest or weed control at 500 g/ha: 500 g ai/ha, visual injury, read-out: Plant response rating, Horseweed
In short: (§1)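 Visual injury ratings on a 0–100 scale (100 = complete control) versus untreated controls, taken 10 days after treatment in greenhouse. Preemergence: directed soil spray onto seeded loam/sand. Postemergence: foliar application at one- to two-leaf stage, plants 2–10 cm. Formulation: non-phytotoxic solvent plus surfactant.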

sedge, umbrella = test: Test B flooded paddy test; assay type: in vivo, Cyperus difformis; conditions: Cyperus difformis, 312 h; 250 g ai/ha, Flood, 13 days, 0 to 100 scale (0 no effect, 100 complete control); read-out: Plant response rating, Sedge, Umbrella
In short: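 Species grown to 2-leaf stage; pots flooded 3 cm above soil and compound applied directly to paddy water, depth maintained throughout. After 13 days in greenhouse, plants visually rated against controls on 0–100 scale (0 no effect, 100 complete control); dash means no result.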

goosegrass [1] = test: Test A postemergence; assay type: in vivo, Eleusine indica; conditions: Eleusine indica, post-emergence, 240 h, postemergence, 10 days, 0 to 100 scale (0 no effect, 100 complete control); for pest or weed control at 125 g/ha: 125 g ai/ha, read-out: Goosegrass plant response rating; for pest or weed control at 500 g/ha: 500 g ai/ha, visual injury, read-out: Plant response rating, Goosegrass
In short: as §1

goosegrass [2] = test: Test A preemergence; assay type: in vivo, Eleusine indica; conditions: Eleusine indica, pre-emergence, 240 h, read-out: Plant response rating, Goosegrass; for pest or weed control at 125 g/ha: 125 g ai/ha, visual injury after 10 days, 0 to 100 scale, 0 is no effect, 100 is complete control; for pest or weed control at 500 g/ha: 500 g ai/ha, 0 to 100 scale (0 no effect, 100 complete control), 10 days
In short: as §1

soybean = test: Test A preemergence; assay type: in vivo, Glycine max; conditions: Glycine max, pre-emergence, 240 h, read-out: Plant response rating, Soybean; for plant injury at 125 g/ha: 125 g ai/ha, visual injury after 10 days, 0 to 100 scale, 0 is no effect, 100 is complete control; for plant injury at 500 g/ha: 500 g ai/ha, 0 to 100 scale (0 no effect, 100 complete control), 10 days
In short: as §1

ryegrass, Italian = test: Test A preemergence; assay type: in vivo, Lolium multiflorum; conditions: Lolium multiflorum, pre-emergence, 240 h, read-out: Plant response rating, Ryegrass, Italian; for pest or weed control at 125 g/ha: 125 g ai/ha, visual injury after 10 days, 0 to 100 scale, 0 is no effect, 100 is complete control; for pest or weed control at 500 g/ha: 500 g ai/ha, 0 to 100 scale (0 no effect, 100 complete control), 10 days
In short: as §1

ragweed = test: Test A postemergence; assay type: in vivo, Ambrosia artemisiifolia; conditions: Ambrosia artemisiifolia, post-emergence, 240 h, postemergence, 10 days, 0 to 100 scale (0 no effect, 100 complete control); for pest or weed control at 125 g/ha: 125 g ai/ha, read-out: Ragweed plant response rating; for pest or weed control at 500 g/ha: 500 g ai/ha, visual injury, read-out: Plant response rating, Ragweed
In short: as §1

pigweed, palmer [3] = test: Test A postemergence; assay type: in vivo, Amaranthus palmeri; conditions: Amaranthus palmeri, post-emergence, 240 h, postemergence, 10 days, 0 to 100 scale (0 no effect, 100 complete control); for pest or weed control at 125 g/ha: 125 g ai/ha, read-out: Pigweed, Palmer plant response rating; for pest or weed control at 500 g/ha: 500 g ai/ha, visual injury, read-out: Plant response rating, Pigweed, Palmer
In short: as §1

blackgrass [4] = test: Test A postemergence; assay type: in vivo, Alopecurus myosuroides; conditions: Alopecurus myosuroides, post-emergence, 240 h; for pest or weed control at 125 g/ha: 125 g ai/ha, read-out: Blackgrass plant response rating; for pest or weed control at 500 g/ha: 500 g ai/ha, read-out: Plant response rating, Blackgrass
In short: as §1

blackgrass [5] = test: Test A preemergence; assay type: in vivo, Alopecurus myosuroides; conditions: Alopecurus myosuroides, pre-emergence, 240 h, read-out: Plant response rating, Blackgrass; for pest or weed control at 125 g/ha: 125 g ai/ha, visual injury after 10 days, 0 to 100 scale, 0 is no effect, 100 is complete control; for pest or weed control at 500 g/ha: 500 g ai/ha, 0 to 100 scale (0 no effect, 100 complete control), 10 days
In short: as §1

oat, wild = test: Test A postemergence; assay type: in vivo, Avena fatua; conditions: Avena fatua, post-emergence, 240 h, postemergence, 10 days, 0 to 100 scale (0 no effect, 100 complete control); for pest or weed control at 125 g/ha: 125 g ai/ha, read-out: Oat, Wild plant response rating; for pest or weed control at 500 g/ha: 500 g ai/ha, visual injury, read-out: Plant response rating, Oat, Wild
In short: as §1

kochia = test: Test A preemergence; assay type: in vivo, Bassia scoparia; conditions: Bassia scoparia, pre-emergence, 240 h, read-out: Plant response rating, Kochia; for pest or weed control at 125 g/ha: 125 g ai/ha, visual injury after 10 days, 0 to 100 scale, 0 is no effect, 100 is complete control; for pest or weed control at 500 g/ha: 500 g ai/ha, 0 to 100 scale (0 no effect, 100 complete control), 10 days
In short: as §1

pigweed, palmer [6] = test: Test A preemergence; assay type: in vivo, Amaranthus palmeri; conditions: Amaranthus palmeri, pre-emergence, 240 h, read-out: Plant response rating, Pigweed, Palmer; for pest or weed control at 125 g/ha: 125 g ai/ha, visual injury after 10 days, 0 to 100 scale, 0 is no effect, 100 is complete control; for pest or weed control at 500 g/ha: 500 g ai/ha, 0 to 100 scale (0 no effect, 100 complete control), 10 days
In short: as §1

[7] = postemergence, 10 days, 0 to 100 scale (0 no effect, 100 complete control)
[8] = postemergence, 10 days, visual injury, 0 to 100 scale (0 no effect, 100 complete control)

Compound	pest or weed control at 125 g/ha (horseweed) [%]	pest or weed control at 500 g/ha (horseweed) [%]	pest or weed control at 250 g/ha (sedge, umbrella) [%]	pest or weed control at 125 g/ha (goosegrass [1]) [%]	pest or weed control at 500 g/ha (goosegrass [1]) [%]	pest or weed control at 125 g/ha (goosegrass [2]) [%]	pest or weed control at 500 g/ha (goosegrass [2]) [%]	plant injury at 125 g/ha (soybean) [%]	plant injury at 500 g/ha (soybean) [%]	pest or weed control at 125 g/ha (ryegrass, Italian) [%]	pest or weed control at 500 g/ha (ryegrass, Italian) [%]	pest or weed control at 125 g/ha (ragweed) [%]	pest or weed control at 500 g/ha (ragweed) [%]	pest or weed control at 125 g/ha (pigweed, palmer [3]) [%]	pest or weed control at 500 g/ha (pigweed, palmer [3]) [%]	pest or weed control at 125 g/ha (blackgrass [4]; [7]) [%]	pest or weed control at 125 g/ha (blackgrass [5]) [%]	pest or weed control at 500 g/ha (blackgrass [5]) [%]	pest or weed control at 125 g/ha (oat, wild) [%]	pest or weed control at 500 g/ha (oat, wild) [%]	also measured
Cc1cccc2c1O[C@@H](C)CN2C(=O)c1cccc(-n2cnc(C3CCCC3)n2)c1 [Compound 80, [3-(3-Cyclopentyl-1H-1,2,4-triazol-1-yl)phenyl][(2S)-2,3-dihydro-2,8-dimethyl-4H-1,4-benzoxazin-4-yl]methanone]	0	0	0	10	30	90	100	0	0	90	100	40	60	30	70	0	20	40	0	20	pest or weed control at 500 g/ha (blackgrass [4]; Postemergence, 0 to 100 scale): 40%; pest or weed control at 125 g/ha (kochia): 10%; pest or weed control at 500 g/ha (kochia): 80%; pest or weed control at 125 g/ha (pigweed, palmer [6]): 10%; pest or weed control at 500 g/ha (pigweed, palmer [6]): 80%
COc1ccc(-n2cnc(C(C)C)n2)cc1C(=O)N1C[C@H](C)Oc2c(Cl)cccc21 [Compound 84, [(2S)-8-chloro-2-methyl-2,3-dihydro-1,4-benzoxazin-4-yl]-[5-(3-isopropyl-1,2,4-triazol-1-yl)-2-methoxy-phenyl]methanone]	40	50	100	100	100	100	100	90	100	100	100	100	100	90	100	70	80	80	90	90	pest or weed control at 500 g/ha (blackgrass [4]; [8]): 70%; pest or weed control at 125 g/ha (kochia): 80%; pest or weed control at 500 g/ha (kochia): 100%; pest or weed control at 125 g/ha (pigweed, palmer [6]): 100%; pest or weed control at 500 g/ha (pigweed, palmer [6]): 100%
CCc1ncn(-c2ccc(OC)c(C(=O)N3C[C@H](C)Oc4c(Cl)cccc43)c2)n1 [Compound 88, [(2S)-8-Chloro-2,3-dihydro-2-methyl-4H-1,4-benzoxazin-4-yl][5-(3-ethyl-1H-1,2,4-triazol-1-yl)-2-methoxyphenyl]methanone]	40	90	100	100	100	100	100	50	100	100	100	70	100	90	90	60	80	80	90	90	pest or weed control at 500 g/ha (blackgrass [4]; [8]): 90%; pest or weed control at 125 g/ha (kochia): 90%; pest or weed control at 500 g/ha (kochia): 100%; pest or weed control at 125 g/ha (pigweed, palmer [6]): 100%; pest or weed control at 500 g/ha (pigweed, palmer [6]): 100%
C[C@H]1CN(C(=O)c2cccc(-n3cnc(C4CCC4)n3)c2)c2cccc(Cl)c2O1 [Compound 93, [(2S)-8-Chloro-2,3-dihydro-2-methyl-4H-1,4-benzoxazin-4-yl][3-(3-cyclobutyl-1H-1,2,4-triazol-1-yl)phenyl]methanone]	0	40	0	20	70	90	100	30	30	90	100	50	50	90	100	70	80	90	20	70	pest or weed control at 500 g/ha (blackgrass [4]; [8]): 90%; pest or weed control at 125 g/ha (kochia): 50%; pest or weed control at 500 g/ha (kochia): 100%; pest or weed control at 125 g/ha (pigweed, palmer [6]): 90%; pest or weed control at 500 g/ha (pigweed, palmer [6]): 100%
